Our source for the Activity, IC50 and viability values is ChEMBL document CHEMBL1139973, “Synthesis and structure-activity relationships of taxuyunnanine C derivatives as multidrug resistance modulator in MDR cancer cells” (Bioorg Med Chem Lett, 2007).

The target of data set [1] is T1, ATP-dependent translocase ABCB1 (Homo sapiens, UniProt P08183). In words: Inhibition of Pgp in multidrug-resistant human 2780AD cells assessed as vincristine accumulation at 10 ug/mL relative to control. On the set-up: scale not given: the % may be the effect or the level left. The conditions noted are these: a2780 adr. The format is cell-based.
T1 sequence (P08183 whole entry): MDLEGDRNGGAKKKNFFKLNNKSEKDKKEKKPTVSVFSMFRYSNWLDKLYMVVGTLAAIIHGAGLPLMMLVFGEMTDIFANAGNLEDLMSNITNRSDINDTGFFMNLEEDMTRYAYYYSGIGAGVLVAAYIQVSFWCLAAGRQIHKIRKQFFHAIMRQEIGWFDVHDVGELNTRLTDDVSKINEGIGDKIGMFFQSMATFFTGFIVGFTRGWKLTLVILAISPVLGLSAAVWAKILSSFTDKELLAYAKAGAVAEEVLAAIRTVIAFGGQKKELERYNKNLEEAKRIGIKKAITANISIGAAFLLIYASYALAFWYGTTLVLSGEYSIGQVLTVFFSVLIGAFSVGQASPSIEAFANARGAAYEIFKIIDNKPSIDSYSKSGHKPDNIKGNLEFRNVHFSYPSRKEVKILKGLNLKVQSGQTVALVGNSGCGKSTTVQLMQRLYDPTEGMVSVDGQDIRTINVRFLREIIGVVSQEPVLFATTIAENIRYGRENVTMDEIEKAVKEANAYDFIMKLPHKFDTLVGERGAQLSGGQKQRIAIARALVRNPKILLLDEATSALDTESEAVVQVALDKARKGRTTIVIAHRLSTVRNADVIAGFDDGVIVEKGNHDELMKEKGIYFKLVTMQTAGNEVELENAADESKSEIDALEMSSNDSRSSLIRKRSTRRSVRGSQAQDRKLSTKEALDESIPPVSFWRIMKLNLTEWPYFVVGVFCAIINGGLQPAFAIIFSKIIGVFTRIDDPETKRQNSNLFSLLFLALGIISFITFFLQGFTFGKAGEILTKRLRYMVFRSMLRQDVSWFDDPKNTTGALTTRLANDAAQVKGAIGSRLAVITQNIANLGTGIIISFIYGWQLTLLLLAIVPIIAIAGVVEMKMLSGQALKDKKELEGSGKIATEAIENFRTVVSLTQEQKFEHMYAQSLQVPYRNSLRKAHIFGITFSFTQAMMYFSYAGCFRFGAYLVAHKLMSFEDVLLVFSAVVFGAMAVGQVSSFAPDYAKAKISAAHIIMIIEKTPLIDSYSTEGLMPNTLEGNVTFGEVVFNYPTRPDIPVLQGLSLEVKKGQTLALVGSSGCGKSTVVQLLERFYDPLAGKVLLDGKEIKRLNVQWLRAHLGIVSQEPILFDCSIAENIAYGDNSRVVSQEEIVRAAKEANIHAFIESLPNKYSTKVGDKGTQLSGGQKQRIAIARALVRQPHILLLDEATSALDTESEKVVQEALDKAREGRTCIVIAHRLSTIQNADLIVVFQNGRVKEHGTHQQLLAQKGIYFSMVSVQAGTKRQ
A short description of data set [2]: Growth inhibition of human WI38 cells. The format is cell-based. The conditions noted are these: WI-38.
Data set [3] concerns A2780. Kind of data set: Cytotoxicity against human A2780 cells assessed as cell viability at 10 uM. The format is functional. The settings on record: read-out: Activity.
Data set [4] concerns A2780. Kind of data set: Cytotoxicity against human A2780 cells assessed as cell viability at 2 uM. The format is functional. The conditions noted are these: read-out: Activity.
Data set [5] in a line: Cytotoxicity against multidrug-resistant human 2780AD cells assessed as cell viability at 10 uM. The settings on record: A2780 ADR, read-out: Activity. The class given is functional.
Data set [6] has as its target T1, ATP-dependent translocase ABCB1. Kind of data set: Inhibition of Pgp in multidrug-resistant human 2780AD cells assessed as vincristine accumulation at 10 ug/mL relative to verapamil. The class given is cell-based. On the set-up: scale not given: the % may be the effect or the level left. The settings on record: a2780 adr.
Data set [7] has the same target. In words: Inhibition of Pgp in multidrug-resistant human 2780AD cells assessed as vincristine accumulation at 1.0 ug/mL relative to control. The class given is cell-based. On the set-up: scale not given: the % may be the effect or the level left. The conditions noted are these: a2780 adr.
The target is the same in data set [8]. In words: Inhibition of Pgp in multidrug-resistant human 2780AD cells assessed as vincristine accumulation at 1.0 ug/mL relative to verapamil. The settings on record: a2780 adr. Details: scale not given: the % may be the effect or the level left. The format is cell-based.
Data set [9] can be described thus: Cytotoxicity against multidrug-resistant human 2780AD cells assessed as cell viability at 0.2 uM. The class given is functional. The conditions noted are these: A2780 ADR, read-out: Activity.
Data set [10] deals with WI-38 VA13. Kind of data set: Growth inhibition of human VA13 cells. The class given is functional, cell-based.
Data set [11] addresses T1, ATP-dependent translocase ABCB1. Kind of data set: Inhibition of Pgp in multidrug-resistant human 2780AD cells assessed as calcein accumulation at 2.5 ug/mL relative to control. Details: scale not given: the % may be the effect or the level left. The class given is cell-based. The conditions noted are these: a2780 adr.
The test system of data set [12] is A2780. In words: Cytotoxicity against human A2780 cells assessed as cell viability at 0.2 uM. The class given is functional. The settings on record: read-out: Activity.
Data set [13] deals with T1, ATP-dependent translocase ABCB1. In words: Inhibition of Pgp in multidrug-resistant human 2780AD cells assessed as calcein accumulation at 25 ug/mL relative to control. The format is cell-based. Details: scale not given: the % may be the effect or the level left. The settings on record: a2780 adr.
Data set [14] shares this target. In words: Inhibition of Pgp in multidrug-resistant human 2780AD cells assessed as vincristine accumulation at 0.1 ug/mL relative to control. The class given is cell-based. On the set-up: scale not given: the % may be the effect or the level left. The conditions noted are these: a2780 adr.
The target is the same in data set [15]. Kind of data set: Inhibition of Pgp in multidrug-resistant human 2780AD cells assessed as calcein accumulation at 0.25 ug/mL relative to control. The class given is cell-based. On the set-up: scale not given: the % may be the effect or the level left. The conditions noted are these: a2780 adr.
Data set [16] has as its system HepG2. Kind of data set: Growth inhibition of human HepG2 cells. The class given is functional, cell-based.
A short description of data set [17]: Cytotoxicity against multidrug-resistant human 2780AD cells assessed as cell viability at 2 uM. The format is functional. The settings on record: A2780 ADR, read-out: Activity.
In data set [18] the target is T1, ATP-dependent translocase ABCB1. Kind of data set: Inhibition of Pgp in multidrug-resistant human 2780AD cells assessed as vincristine accumulation at 0.1 ug/mL relative to verapamil. The class given is cell-based. On the set-up: scale not given: the % may be the effect or the level left. The conditions noted are these: a2780 adr.
Data set [19] in a line: Growth inhibition of multidrug-resistant human 2780AD cells. The format is functional, cell-based. The settings on record: A2780 ADR.
For data set [20], the system named is A2780. In words: Growth inhibition of human A2780 cells. The class given is functional, cell-based.

Each structure is given as a SMILES string.

Turning to `C=C1[C@@H](OC(C)=O)CC[C@@]2(C)C[C@H](OC(C)=O)C3=C(C)C[C@H](O)[C@@H]([C@@H](OC(C)=O)[C@H]12)C3(C)C`, the Activity in data set [1] is recorded as 242%; in data set [6] it was 53%; in [7], 147%; in data set [8], 79%; in [11] it was 86%; in [13], 148%. Moreover, the results for the Activity in data set [14], in data set [15] and in data set [18] were 102%, 104% and 94%, respectively. Besides, the IC50 (as a rule, the concentration that gives 50% inhibition) is 133 µM in [2], 80 µM in data set [10] and 216 µM in data set [16]. The viability at 10 µM amounted to 20% in data set [3] and 77% in [5]. Besides, the viability at 2 µM in data set [4] was found to be 95%; in data set [17], 96%. The viability at 0.2 µM in data set [9] is 101%; in data set [12], 97%.
Regarding `C=C1[C@@H](OC(C)=O)CC[C@@]2(C)C[C@H](O)C3=C(C)C[C@H](OC(=O)/C=C/c4ccccc4)[C@@H]([C@@H](OC(C)=O)[C@H]12)C3(C)C`, the Activity in [1] is recorded as 527%; in [6] it was 116%; in data set [7], 272%; in data set [8] it was 146%; in data set [11], 132%; in data set [13] it was 190%. Moreover, the Activity is recorded as 121% in data set [14], 107% in [15] and 111% in data set [18]. Besides, the IC50 in data set [2] was 13.5 µM; in data set [19] it was 8 µM; in [10], 37.4 µM; in data set [20] it was 6.1 µM; in data set [16], 15.7 µM. In addition, the viability at 10 µM in data set [3] was 27%; in data set [5] it was 38%. Also, the results for the viability at 2 µM in data set [4] and in [17] were 74% and 86%, respectively. The figures for the viability at 0.2 µM in data set [9] and in [12] were 105% and 89%, respectively.
